Values quoted from earlier work as cited in article PMC8513935.

Legend:
[1] = log P octanol/water from commercial databases, averaged (the ESI); conditions: Octanol (wet), 25 C
[2] = experimental, compiled by the authors from the literature (the ESI cites the sources)
[3] = derived by the authors as gas->solvent minus gas->water (a hypothetical dry solvent; the ESI), not a two-phase measurement

In the case of COC, the log K of transfer, water to solvent [1] is listed as 0.0999 log10 K, the log K of transfer, gas to solvent ([2]; 2-Methylpropan-1-ol, 25 C) is listed as 1.54 log10 K and the log K of transfer, gas to solvent ([2]; 2-Methylpropan-2-ol, 25 C) is listed as 1.65 log10 K. For the same compound, the log K of transfer, gas to solvent ([2]; 3-Methylbutan-1-ol, 25 C) was 1.46 log10 K, the log K of transfer, gas to solvent ([2]; Butan-1-ol, 25 C) was 1.5 log10 K and the log K of transfer, gas to solvent ([2]; Butan-2-ol, 25 C) was 1.54 log10 K. The log K of transfer, gas to solvent ([2]; Chlorobenzene, 25 C) was 1.6 log10 K, the log K of transfer, gas to solvent ([2]; Hexadecane, 25 C) was 1.28 log10 K and the log K of transfer, gas to solvent ([2]; Hexane, 25 C) was 1.31 log10 K. The log K of transfer, gas to solvent ([2]; Methanol, 25 C) was 1.69 log10 K, the log K of transfer, gas to solvent ([2]; Octan-1-ol, 25 C) was 1.37 log10 K and the log K of transfer, gas to solvent ([2]; Pentan-1-ol, 25 C) was 1.45 log10 K. For the same compound, the log K of transfer, gas to solvent ([2]; Propan-2-ol, 25 C) was 1.56 log10 K, the log K of transfer, gas to solvent ([2]; Water, 25 C) was 1.4 log10 K and the log K of transfer, water to solvent ([3]; 2-Methylpropan-1-ol, 25 C) was 0.14 log10 K. The log K of transfer, water to solvent ([3]; 2-Methylpropan-2-ol, 25 C) was 0.25 log10 K, the log K of transfer, water to solvent ([3]; 3-Methylbutan-1-ol, 25 C) was 0.057 log10 K and the log K of transfer, water to solvent ([3]; Butan-1-ol, 25 C) was 0.0999 log10 K. For the same compound, the log K of transfer, water to solvent ([3]; Butan-2-ol, 25 C) was 0.14 log10 K, the log K of transfer, water to solvent ([3]; Chlorobenzene, 25 C) was 0.2 log10 K and the log K of transfer, water to solvent ([3]; Hexadecane, 25 C) was -0.115 log10 K. For the same compound, the log K of transfer, water to solvent ([3]; Hexane, 25 C) was -0.087 log10 K, the log K of transfer, water to solvent ([3]; Methanol, 25 C) was 0.29 log10 K and the log K of transfer, water to solvent ([3]; Octan-1-ol(dry), 25 C) was -0.03 log10 K. For the same compound, the log K of transfer, water to solvent ([3]; Pentan-1-ol, 25 C) was 0.05 log10 K and the log K of transfer, water to solvent ([3]; Propan-2-ol, 25 C) was 0.16 log10 K.
For Clc1cccc(Cl)c1, the log K of transfer, water to solvent [1] is listed as 3.6 log10 K, the log K of transfer, gas to solvent ([2]; CCl4, 25 C) is listed as 4.55 log10 K and the log K of transfer, gas to solvent ([2]; Chloroform, 25 C) is listed as 4.59 log10 K. The log K of transfer, gas to solvent ([2]; Hexadecane, 25 C) was 4.41 log10 K, the log K of transfer, gas to solvent ([2]; Hexane, 25 C) was 4.53 log10 K and the log K of transfer, gas to solvent ([2]; Octan-1-ol, 25 C) was 4.13 log10 K. The log K of transfer, gas to solvent ([2]; Water, 25 C) was 0.72 log10 K, the log K of transfer, water to solvent ([3]; CCl4, 25 C) was 3.83 log10 K and the log K of transfer, water to solvent ([3]; Chloroform, 25 C) was 3.87 log10 K. For the same compound, the log K of transfer, water to solvent ([3]; Hexadecane, 25 C) was 3.69 log10 K, the log K of transfer, water to solvent ([3]; Hexane, 25 C) was 3.81 log10 K and the log K of transfer, water to solvent ([3]; Octan-1-ol(dry), 25 C) was 3.41 log10 K.
In the case of C/C=C\C, the log K of transfer, water to solvent [1] is given as 2.33 log10 K, the log K of transfer, gas to solvent ([2]; Hexadecane, 25 C) is given as 1.74 log10 K and the log K of transfer, gas to solvent ([2]; Water, 25 C) is given as -0.99 log10 K. For the same compound, the log K of transfer, water to solvent ([3]; Hexadecane, 25 C) was 2.73 log10 K.
In the case of CCCCCCCO, the log K of transfer, water to solvent [1] is given as 2.62 log10 K, the log K of transfer, gas to solvent ([2]; 1,2-Dichloroethane, 25 C) is given as 4.98 log10 K and the log K of transfer, gas to solvent ([2]; Benzene, 25 C) is given as 5.02 log10 K. The log K of transfer, gas to solvent ([2]; Butyronitrile, 25 C) was 5.33 log10 K, the log K of transfer, gas to solvent ([2]; CCl4, 25 C) was 4.66 log10 K and the log K of transfer, gas to solvent ([2]; Chlorobenzene, 25 C) was 4.95 log10 K. The log K of transfer, gas to solvent ([2]; Chloroform, 25 C) was 5.5 log10 K, the log K of transfer, gas to solvent ([2]; Cyclohexane, 25 C) was 4.18 log10 K and the log K of transfer, gas to solvent ([2]; Heptan-1-ol, 25 C) was 5.8 log10 K. For the same compound, the log K of transfer, gas to solvent ([2]; Hexadecane, 25 C) was 4.11 log10 K, the log K of transfer, gas to solvent ([2]; Hexan-1-ol, 25 C) was 5.92 log10 K and the log K of transfer, gas to solvent ([2]; Hexane, 25 C) was 4.1 log10 K. The log K of transfer, gas to solvent ([2]; Methanol, 25 C) was 5.57 log10 K, the log K of transfer, gas to solvent ([2]; Toluene, 25 C) was 4.95 log10 K and the log K of transfer, gas to solvent ([2]; Water, 25 C) was 3.09 log10 K. The log K of transfer, water to solvent ([3]; 1,2-Dichloroethane, 25 C) was 1.89 log10 K, the log K of transfer, water to solvent ([3]; Benzene, 25 C) was 1.93 log10 K and the log K of transfer, water to solvent ([3]; Butyronitrile, 25 C) was 2.24 log10 K. For the same compound, the log K of transfer, water to solvent ([3]; CCl4, 25 C) was 1.57 log10 K, the log K of transfer, water to solvent ([3]; Chlorobenzene, 25 C) was 1.86 log10 K and the log K of transfer, water to solvent ([3]; Chloroform, 25 C) was 2.41 log10 K. The log K of transfer, water to solvent ([3]; Cyclohexane, 25 C) was 1.09 log10 K, the log K of transfer, water to solvent ([3]; Heptan-1-ol, 25 C) was 2.71 log10 K and the log K of transfer, water to solvent ([3]; Hexadecane, 25 C) was 1.02 log10 K. The log K of transfer, water to solvent ([3]; Hexan-1-ol, 25 C) was 2.83 log10 K, the log K of transfer, water to solvent ([3]; Hexane, 25 C) was 1.01 log10 K and the log K of transfer, water to solvent ([3]; Methanol, 25 C) was 2.48 log10 K. For the same compound, the log K of transfer, water to solvent ([3]; Toluene, 25 C) was 1.86 log10 K.
